Data reported in patent US10266549B2, “ULK1 inhibitors and methods using same” (SALK INSTITUTE FOR BIOLOGICAL STUDIES, priority 2014, dated 2019).

Tests used:
JAK2 = JAK2 (Homo sapiens (Human), UniProt O60674); assay: classic in vitro kinase assay, dose-response (Reaction Biology); assay type: biochemical; conditions: dose-response curves
Method: (§1) Kinase inhibitor specificity profiling assays were first carried out using DiscoveRx KINOMEscan competition binding assay against a panel of 456 kinases (www dot discoverx dot corn) using 1 μM compound 14.
(§2) To use a more well-established measure of the selectivity of compound 14 against its top binding kinases, we examined dose-response curves for its inhibition of these kinases in a classic in vitro kinase assays. Here we tested the ten kinases most suppressed by compound 14 by the ATP binding assay. […] It is important to note that even though compound 14 inhibits these 4 kinase quite equivalently across all of the different assays we have examined, this is still greater selectivity than all but a handful of widely used ATP-competitive kinases inhibitors widely used in clinical oncology today. We next examined the ability of compound 14 to suppress signaling downstream of various kinases in cells in culture. […] Similarly, compound 14 inhibited FAK and AuroraA comparably to ULK1 in MEFs as well.

AuroraA kinase = AuroraA kinase (Homo sapiens (Human), UniProt O14965); assay: as above; assay type: biochemical; conditions: dose-response curves
Sequence of AuroraA kinase (O14965 whole entry): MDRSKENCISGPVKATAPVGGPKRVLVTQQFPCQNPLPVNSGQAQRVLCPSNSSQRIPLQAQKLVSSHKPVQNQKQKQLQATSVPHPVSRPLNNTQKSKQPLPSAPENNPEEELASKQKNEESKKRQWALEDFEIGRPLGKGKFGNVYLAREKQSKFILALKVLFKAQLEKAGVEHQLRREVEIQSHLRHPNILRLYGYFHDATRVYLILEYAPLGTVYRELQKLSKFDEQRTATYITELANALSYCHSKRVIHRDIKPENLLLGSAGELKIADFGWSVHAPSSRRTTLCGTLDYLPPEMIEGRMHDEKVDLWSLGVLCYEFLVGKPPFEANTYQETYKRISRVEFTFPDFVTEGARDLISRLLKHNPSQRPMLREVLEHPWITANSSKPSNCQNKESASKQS
Method: as §1, §2

FAK = FAK (Homo sapiens (Human), UniProt Q05397); assay: as above; assay type: biochemical; conditions: dose-response curves
Sequence of FAK (Q05397 whole entry): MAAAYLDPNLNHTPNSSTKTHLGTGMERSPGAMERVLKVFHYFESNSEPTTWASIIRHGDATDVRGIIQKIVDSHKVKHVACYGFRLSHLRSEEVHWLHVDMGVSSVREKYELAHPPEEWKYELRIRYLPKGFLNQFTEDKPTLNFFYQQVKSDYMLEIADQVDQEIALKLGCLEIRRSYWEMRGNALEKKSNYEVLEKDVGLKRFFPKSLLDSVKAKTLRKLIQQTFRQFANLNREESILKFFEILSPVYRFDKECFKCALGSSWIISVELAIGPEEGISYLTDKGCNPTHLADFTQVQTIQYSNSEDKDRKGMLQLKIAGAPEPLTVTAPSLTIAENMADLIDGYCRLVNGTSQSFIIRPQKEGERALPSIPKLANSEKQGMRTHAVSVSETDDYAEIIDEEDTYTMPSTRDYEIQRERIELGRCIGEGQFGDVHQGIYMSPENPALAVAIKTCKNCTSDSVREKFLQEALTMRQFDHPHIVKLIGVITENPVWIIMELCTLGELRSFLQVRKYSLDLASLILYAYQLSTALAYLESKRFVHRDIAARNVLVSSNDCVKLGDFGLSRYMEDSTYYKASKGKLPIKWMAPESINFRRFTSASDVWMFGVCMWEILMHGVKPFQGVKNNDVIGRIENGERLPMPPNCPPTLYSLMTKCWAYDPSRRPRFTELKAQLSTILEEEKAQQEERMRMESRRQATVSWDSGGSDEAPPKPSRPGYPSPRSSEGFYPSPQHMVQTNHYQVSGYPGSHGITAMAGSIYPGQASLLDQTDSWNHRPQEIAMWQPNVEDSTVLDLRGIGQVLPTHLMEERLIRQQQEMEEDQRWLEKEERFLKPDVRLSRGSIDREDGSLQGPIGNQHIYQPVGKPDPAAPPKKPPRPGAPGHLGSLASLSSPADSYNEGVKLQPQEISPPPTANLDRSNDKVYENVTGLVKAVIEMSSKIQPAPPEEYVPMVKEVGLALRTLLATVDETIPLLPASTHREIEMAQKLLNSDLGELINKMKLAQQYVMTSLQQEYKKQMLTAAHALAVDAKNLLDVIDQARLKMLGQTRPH
Method: as §1, §2

U87MG glioblastoma cells = assay: AnnexinV apoptosis in U87MG cells; assay type: cell-based; conditions: selectively in the nutrient-starved state
Method: For flow cytometry analysis, cells were collected at the appropriate time point, washed once in PBS, trypsinized and pelleted. For Annexin V staining, cells were washed in 1× Annexin V buffer and treated as described by the Annexin V staining protocol (BD Pharmingen, San Diego, Calif.). Briefly, cells were resuspended in Annexin V buffer to a concentration of one million per mL, 100,000 cells were then stained with 5 μL of phycoerythrin (PE)-conjugated Annexin V antibody (BD Pharmingen, San Diego, Calif.) and 5 μL of 7-amino-actinomycin D (7AAD) and then incubated at room temperature for 15 minutes. 400 μL of Annexin V buffer was then added to each sample with gentle mixing. Stained cells were analyzed using a FACScan flow cytometer (Becton Dickinson, San Jose, Calif.). Flow cytometry data was analyzed using FlowJo 8.6 software (Tree Star Inc., Ashland, Oreg.).
There has been great interest in the role of autophagy in the survival of tumor cells, particular tumor cells faced with metabolic stress from chemotherapies or targeted therapeutics. We next examined whether compound 14 would promote apoptosis in tumor cells similar to the MEFs, selectively under conditions in which autophagy is actively engaged. […]

ULK1 = ULK1 (Homo sapiens (Human), UniProt O75385); assay: ULK1 inhibition assay (Table 1); assay type: biochemical; conditions: * = tested as a mixture of regioisomers
Sequence of ULK1 (O75385 whole entry, species assumed): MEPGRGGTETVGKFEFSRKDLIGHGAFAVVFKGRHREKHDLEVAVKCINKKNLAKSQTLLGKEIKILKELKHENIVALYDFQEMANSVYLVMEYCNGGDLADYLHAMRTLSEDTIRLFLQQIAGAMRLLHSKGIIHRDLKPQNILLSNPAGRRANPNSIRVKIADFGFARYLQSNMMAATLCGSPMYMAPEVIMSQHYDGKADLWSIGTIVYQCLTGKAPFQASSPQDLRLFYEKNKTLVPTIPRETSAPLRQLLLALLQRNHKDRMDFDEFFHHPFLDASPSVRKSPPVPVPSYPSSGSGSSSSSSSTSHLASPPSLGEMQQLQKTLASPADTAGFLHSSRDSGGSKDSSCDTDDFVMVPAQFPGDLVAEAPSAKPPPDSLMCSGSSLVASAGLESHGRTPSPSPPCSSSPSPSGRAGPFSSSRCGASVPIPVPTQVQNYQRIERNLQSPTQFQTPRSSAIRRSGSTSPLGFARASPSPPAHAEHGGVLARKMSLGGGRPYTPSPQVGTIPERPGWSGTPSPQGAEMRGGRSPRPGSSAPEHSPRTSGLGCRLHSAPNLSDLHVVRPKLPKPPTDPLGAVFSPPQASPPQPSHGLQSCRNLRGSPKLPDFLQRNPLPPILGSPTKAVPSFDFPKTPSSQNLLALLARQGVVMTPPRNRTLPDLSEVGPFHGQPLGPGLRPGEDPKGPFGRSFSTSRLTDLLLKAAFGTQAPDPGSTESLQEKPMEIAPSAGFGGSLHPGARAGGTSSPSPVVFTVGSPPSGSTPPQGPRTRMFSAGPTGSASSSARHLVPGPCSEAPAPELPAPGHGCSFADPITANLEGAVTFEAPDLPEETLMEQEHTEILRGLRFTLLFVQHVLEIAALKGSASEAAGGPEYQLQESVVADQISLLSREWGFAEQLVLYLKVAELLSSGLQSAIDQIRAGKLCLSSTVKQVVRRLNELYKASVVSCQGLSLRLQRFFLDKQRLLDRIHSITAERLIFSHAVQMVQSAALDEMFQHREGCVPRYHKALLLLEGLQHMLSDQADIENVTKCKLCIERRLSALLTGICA

endogenous ULK1 = endogenous ULK1 activity in MEFs: mobility shift of Beclin1 and Atg13; assay type: cell-based, mouse; conditions: WT MEFs, 10 μM co-treatment, 1 hr
Method: FIG. 7D: WT or Ulk1/Ulk2 double knockout mouse embryonic fibroblasts (MEFs) were treated with fresh media (Dulbecco's modified Eagle medium [DMEM] containing 10% FBS) containing 1-μM INK128, 1-μM AZD8055, or DMSO or with starvation media (EBSS) in the presence or absence of 10 μM compound 14. Cellular lysates were isolated after 1 hr of treatment and immunoblotted with the indicated antibodies. Asterisk denotes non-specific band.
We next examined whether compound 14 inhibits endogenous ULK1 activity. To activate endogenous ULK1, we treated MEFs with either amino acid starvation media (Earle's balanced salt solution [EBSS]) or the mTOR ATP-competitive inhibitors INK128 or AZD8055. In WT MEFs, we observed a mobility shift in endogenous Beclin1 and Atg13 in response to EBSS starvation media or the mTOR catalytic inhibitors, which was abolished in Ulk1/2-deficient MEFs (FIG. 7D). […] In certain embodiments, the mobility shifts observed in endogenous Beclin1 and Atg13 induced by mTOR inhibitors and starvation media reflect phosphorylation of endogenous Beclin1/Atg13 by endogenous ULK1/2 as they only occur in WT but not Ulk1/2-deficient MEFs.

Sequence of JAK2 (O60674 whole entry): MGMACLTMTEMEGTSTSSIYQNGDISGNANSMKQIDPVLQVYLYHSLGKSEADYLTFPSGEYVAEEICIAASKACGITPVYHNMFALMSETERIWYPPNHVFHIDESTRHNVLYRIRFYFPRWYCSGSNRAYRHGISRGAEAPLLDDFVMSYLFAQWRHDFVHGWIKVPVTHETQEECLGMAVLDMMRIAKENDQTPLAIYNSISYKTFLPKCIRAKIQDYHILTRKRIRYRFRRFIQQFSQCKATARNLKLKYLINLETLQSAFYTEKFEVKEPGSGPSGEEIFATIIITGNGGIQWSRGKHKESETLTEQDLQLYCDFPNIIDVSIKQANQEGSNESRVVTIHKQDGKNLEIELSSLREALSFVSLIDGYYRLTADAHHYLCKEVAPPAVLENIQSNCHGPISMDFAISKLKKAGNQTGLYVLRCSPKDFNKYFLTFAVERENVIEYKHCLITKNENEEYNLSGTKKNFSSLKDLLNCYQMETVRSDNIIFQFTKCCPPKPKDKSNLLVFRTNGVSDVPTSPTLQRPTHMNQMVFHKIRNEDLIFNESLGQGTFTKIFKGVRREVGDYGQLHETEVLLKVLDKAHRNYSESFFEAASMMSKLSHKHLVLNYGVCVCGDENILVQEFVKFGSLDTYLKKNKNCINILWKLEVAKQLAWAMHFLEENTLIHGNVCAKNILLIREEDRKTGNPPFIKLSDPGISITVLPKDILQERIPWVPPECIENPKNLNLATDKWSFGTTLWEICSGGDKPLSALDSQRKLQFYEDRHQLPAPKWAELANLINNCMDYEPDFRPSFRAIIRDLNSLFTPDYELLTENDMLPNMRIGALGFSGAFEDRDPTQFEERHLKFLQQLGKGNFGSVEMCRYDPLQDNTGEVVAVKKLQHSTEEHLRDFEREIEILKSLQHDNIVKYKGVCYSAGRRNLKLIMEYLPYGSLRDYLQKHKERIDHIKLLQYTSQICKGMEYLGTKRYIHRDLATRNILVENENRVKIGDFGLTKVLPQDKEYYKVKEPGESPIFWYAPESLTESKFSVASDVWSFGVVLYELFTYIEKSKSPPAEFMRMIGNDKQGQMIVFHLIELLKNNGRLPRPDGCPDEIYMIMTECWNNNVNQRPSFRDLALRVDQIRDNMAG

CNC(=O)c1ccccc1Nc1nc(Nc2cc(OC)c(OC)c(OC)c2)ncc1Br [compound 14, 2-(5-bromo-2-(3,4,5-trimethoxyphenylamino)pyrimidin-4-ylamino)-N-methylbenzamide]
inhibition relative to ULK1 (JAK2): equivalently inhibited | inhibition relative to ULK1 (AuroraA kinase): equivalently inhibited | inhibition relative to ULK1 (FAK): equivalently inhibited | apoptosis (AnnexinV+ cells) (U87MG glioblastoma cells): promoted apoptosis | IC50 (ULK1): < 0.2 µM | EBSS and mTOR-inhibitor induced mobility shift in Beclin1 and Atg13 (endogenous ULK1): inhibited
